Converted amounts (≈) assume the structure as drawn.
Columns and labels:
[1] = Aqueous solubility of compound in neutral JP2 solution; format: physicochemical; conditions: JP2 solution; read-out: solubility
[2] = Metabolic stability in mouse liver microsomes assessed as residual rate; format: ADME, Microsome
[3] = Effective permeability of compound by PAMPA assay; format: ADME; conditions: read-out: Peff
Neisseria gonorrhoeae [4] = test: Antibacterial activity against Neisseria gonorrhoeae clinical isolate assessed inhibition of bacterial growth; format: functional
Staphylococcus aureus = test: Antibacterial activity against Staphylococcus aureus assessed inhibition of bacterial growth; format: functional
[5] = Aqueous solubility of compound in acidic JP1 solution; format: physicochemical; conditions: JP1 solution; read-out: solubility
Neisseria gonorrhoeae [6] = test: Antibacterial activity against resistant Neisseria gonorrhoeae assessed inhibition of bacterial growth; format: functional
Neisseria gonorrhoeae [7] = test: Antibacterial activity against azithromycin resistant Neisseria gonorrhoeae assessed inhibition of bacterial growth; format: functional
Neisseria gonorrhoeae [8] = test: Antibacterial activity against ceftriaxone intermediate resistant Neisseria gonorrhoeae assessed inhibition of bacterial growth; format: functional

Structure (SMILES)	solubility [1] [µM]	Stability [2] [%]	Papp [3] [×10⁻⁶ cm/s]	MIC90 (Neisseria gonorrhoeae [4]) [µg/mL]	MIC50 (Staphylococcus aureus) [µg/mL]	MIC90 (Staphylococcus aureus) [µg/mL]	solubility [5] [µM]	MIC50 (Neisseria gonorrhoeae [6]) [µg/mL]	MIC90 (Neisseria gonorrhoeae [6]) [µg/mL]	MIC (Neisseria gonorrhoeae [7]) [µg/mL]	MIC (Neisseria gonorrhoeae [8]) [µg/mL]
C#CCONC(=O)O[C@H]1[C@@H](O)[C@H](Oc2ccc3c(O)c(NC(=O)c4ccc(O)c(CC=C(C)C)c4)c(=O)oc3c2C)OC(C)(C)[C@@H]1OC	69.3 (≈ 46.2 µg/mL)	47.2	1.14	0.125 (≈ 0.187 µM)	0.063 (≈ 0.0945 µM)	0.063 (≈ 0.0945 µM)	< 1	0.25 (≈ 0.375 µM)	0.5 (≈ 0.75 µM)		
CO[C@@H]1[C@@H](OC(=O)c2ccc(C)[nH]2)[C@@H](O)[C@H](Oc2ccc3c(O)c(NC(=O)c4cn(C)cn4)c(=O)oc3c2C)OC1(C)C	> 80	119	1.61	0.25 (≈ 0.419 µM)	0.5 (≈ 0.838 µM)	0.5 (≈ 0.838 µM)	> 80	0.25 (≈ 0.419 µM)	0.5 (≈ 0.838 µM)		
C=Cc1cc(C(=O)Nc2c(O)c3ccc(O[C@@H]4OC(C)(C)[C@H](OC)[C@@H](OC(=O)c5ccc(C)[nH]5)[C@H]4O)c(C)c3oc2=O)ccc1N	65.8 (≈ 41.7 µg/mL)	104	8.06	0.25 (≈ 0.395 µM)	0.25 (≈ 0.395 µM)	0.5 (≈ 0.789 µM)	1.79 (≈ 1.13 µg/mL)	0.25 (≈ 0.395 µM)	0.5 (≈ 0.789 µM)		
CO[C@@H]1[C@@H](OC(=O)c2ccc(C)[nH]2)[C@@H](O)[C@H](Oc2ccc3c(O)c(NC(=O)c4ccc(O)c(CC=C(C)C)c4)c(=O)oc3c2C)OC1(C)C	69.2 (≈ 46.8 µg/mL)	92.7	10.3	0.063 (≈ 0.0931 µM)	0.008 (≈ 0.0118 µM)	0.08 (≈ 0.118 µM)	< 1	0.063 (≈ 0.0931 µM)	0.125 (≈ 0.185 µM)	0.008 (≈ 0.0118 µM)	0.063 (≈ 0.0931 µM)
CO[C@@H]1[C@@H](OC(=O)c2ccc(C)[nH]2)[C@@H](O)[C@H](Oc2ccc3c(O)c(NC(=O)c4ccc(C)c(C)c4)c(=O)oc3c2C)OC1(C)C	79.1 (≈ 49.1 µg/mL)	80.8	18	0.25 (≈ 0.403 µM)	0.016 (≈ 0.0258 µM)	0.016 (≈ 0.0258 µM)	< 1	0.125 (≈ 0.201 µM)	0.125 (≈ 0.201 µM)		
C[C@@H]1CN2c3c(cc4c(N5C(=O)OC[C@@H]5C)noc4c3F)CC3(C(=O)NC(=O)NC3=O)[C@H]2[C@H](C)O1 [ZOLIFLODACIN]	66 (≈ 32.2 µg/mL)	94.3	0.039	0.063 (≈ 0.129 µM)			66.3 (≈ 32.3 µg/mL)				
